Earlier results in patent publication US20080254117A1, “PROCESS FOR PREPARING PRAMIPEXOLE DIHYDROCHLORIDE TABLETS” (priority 2007, published 2008).
Where a name gives a salt, the structure may show the parent alone.

What was measured:
[1] = not given; remark: listed apart in the source

Row | solubility in buffer media (between pH 2 and pH 7.4) | Water solubility (water) | light sensitivity in solution ([1]; in solution) | stability in the solid state ([1]; solid state) | Structure (SMILES)
1 | above 10 mg/mL | more than 20 mg/mL |  |  | CCCN[C@H]1CCc2nc(N)sc2C1 [Pramipexole dihydrochloride monohydrate, pramipexole dihydrochloride monohydrate]
2 |  |  | light sensitive | very stable in the solid state | CCCN[C@H]1CCc2nc(N)sc2C1 [Pramipexole, (S)-2-amino-4,5,6,7-tetrahydro-6-(propylamino)benzothiazole]
